According to the METLIN SMRT retention time set (Domingo-Almenara et al. 2019):

Assay: gradient 5% acetonitrile 3 min, to 50% in 2 min, to 85% in 15 min, held 3 min, 100 µL/min
Conditions: column: Zorbax Extend-C18 2.1 x 50 mm; eluents: water / acetonitrile, 0.1% formic acid
Method in brief: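 Pure standards were run in mixtures of ~100 molecules by HPLC coupled to a quadrupole time-of-flight mass spectrometer. The column was a Zorbax Extend-C18 (2.1 × 50 mm, 1.8 μm) at 100 μL/min, with water and acetonitrile each containing 0.1% formic acid, in positive and negative ionization mode. Dead and dwell volumes were 40 μL and 900 μL. Retention time was taken from computationally picked adduct peaks, each manually inspected, with data collected over 3 months.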

Row | RP-LC retention time [s] | Compound
1 | 815 | CC(C)CCNC(=O)c1ccc2c(c1)nc1n2CCN(C2CCCCC2)C1=O
2 | 574 | O=S(=O)(NCCc1ccccn1)c1ccc2ccccc2c1
3 | 819 | CCn1ccc2c(cc(C(=O)Nc3ccc(Cl)cc3)n2C)c1=O
4 | 604 | c1ccc(-c2nc(-c3ccncc3)no2)c(OC2CCNC2)c1 (centres undefined)
5 | 933 | CCc1ccc(C(=O)N2CCC3(CC2)N=C(c2ccc(C)cc2)NO3)cc1
6 | 649 | CCOC(=O)c1oc2ccc(S(=O)(=O)N3CC4CN(C)CC(C3)O4)cc2c1C
7 | 853 | COc1cccc(C(=O)N2CCN(c3ccc(=O)n(-c4ccc(Cl)cc4)n3)CC2)c1
8 | 909 | Cc1ccc(N2CCC(NC(=O)Nc3cccc(Cl)c3C)C2=O)cc1 (centres undefined)
9 | 754 | CCc1nc(N2CCC(C(=O)NCc3ccccc3C(F)(F)F)CC2)c2c(C)scc2n1
10 | 934 | COc1ccc(-c2nnc(N3CCC(C(=O)NC(C)c4ccc(C)cc4C)CC3)o2)cc1 (centres undefined)
11 | 645 | COc1cc2c(cc1OC)C(C(=O)NC1CCCCCC1)C(c1cccnc1)N(C)C2=O (centres undefined)
12 | 749 | CCc1cccc(NC(=O)Nc2cnn(-c3ncc(N4CCCC4)cn3)c2)c1
13 | 1340 | Cc1ccc(C)c(-c2csc(Nc3ccc(Cl)cc3)n2)c1
14 | 946 | Cc1ccc(NC(=O)c2nc(C)oc2C)c(F)c1
15 | 819 | O=C(Nc1ccc(Cl)cc1)C1CCN(C(=O)C2Sc3ccccc3NC2=O)CC1 (centres undefined)
16 | 612 | Cc1cc(NCCCCCCCNc2cc(C)nc3cc(N)ccc23)c2ccc(N)cc2n1
17 | 1060 | O=C(COc1ccc(Cl)cc1Cl)Nc1ccc2c(c1)N(C(=O)c1cccs1)CC2
18 | 600 | CCN1CCN(CCNC(=O)CN2C(=O)CSc3cccn3-c3ccccc32)CC1
19 | 772 | Cc1cc(Cl)ccc1NS(=O)(=O)c1cc(-c2[nH]ncc2C(=O)N2CCCC2)oc1C
20 | 805 | CCS(=O)(=O)c1nc2ccc(NS(=O)(=O)c3ccc4c(c3)oc(=O)n4C)cc2s1
21 | 905 | COc1ccc(N2CC(c3nc(-c4cc(OC)c(OC)c(OC)c4)no3)CC2=O)cc1Cl (centres undefined)
22 | 624 | Cn1cccc1C(=O)N1CC[C@@H]2CN(S(C)(=O)=O)[C@@H]2C1

Row | RP-LC retention time [s] | Compound
23 | 815 | O=C(NC1CCCCCC1)C1CCCN(c2ncnc3c2oc2ccccc23)C1 (centres undefined)
24 | 621 | CCN1C(=O)CN(C(=O)c2ccsc2)CC12CCOCC2
25 | 623 | Cc1cc2nc(N3CCOCC3)n(CC(=O)Nc3ccc(N(C)C)cc3)c(=O)c2n1C
26 | 747 | Fc1ccc(-c2nnc(Cc3nc(-c4cccnc4)no3)o2)cc1
27 | 672 | Cc1ccc(-c2cn3cccc(C)c3n2)cc1NS(=O)(=O)c1ccccc1
28 | 681 | O=C(CC1=C2CCCCC2NC1=O)Nc1ccccc1 (centres undefined)
29 | 1150 | CCCN1C(=O)COc2ccc(-c3csc(NC(=O)c4cccc(Cl)c4)n3)cc21
30 | 588 | c1ccc(COCC2CCN(Cc3ccccc3)CC2)cc1
31 | 743 | CCn1cnc2ccc(-c3noc(COc4ccc(OC)cc4)n3)cc21
32 | 625 | CCc1nccn1Cc1nc(-c2ccc(F)cc2)no1
33 | 598 | CCCCN1CC(c2nc3ccccc3n2CC(=O)N2CCOCC2)CC1=O (centres undefined)
34 | 644 | Cn1cccc1CN1CCCC(COc2ccccc2C(=O)N2CCCC2)C1 (centres undefined)
35 | 590 | COc1cc2c(cc1OC)C(C(=O)N1CCN(c3ccccn3)CC1)C1c3ccccc3CCN1C2=O (centres undefined)
36 | 646 | CNC(=O)C1CCCN(c2nc3ncn(CC(=O)Nc4ccc(C)cc4C)c(=O)c3s2)C1 (centres undefined)
37 | 652 | CCS(=O)(=O)c1nc2ccc(NS(=O)(=O)c3cnc[nH]3)cc2s1
38 | 815 | CCCNC(=O)c1cn(-c2ccc(-c3nc(C4CC4)no3)cn2)cn1
39 | 749 | COCCNC(=O)N1c2ccccc2NC2=C(C(=O)CC(C)(C)C2)C1c1ccc(F)cc1 (centres undefined)
40 | 992 | Cc1c(Cl)cccc1Nc1c(-c2ccc(Cl)cc2)nc2ncccn12
41 | 556 | O=C(NCCc1cn2c(n1)SCC2)C(=O)Nc1ccc2c(c1)OCCO2
42 | 908 | O=C(NC(c1ccccc1)c1nnc(-c2ccccc2Cl)o1)c1ccco1 (centres undefined)
43 | 594 | Cc1nccn1-c1cc(N2CCCCC2)nc2ccnn12
44 | 804 | O=C(Cc1cccs1)Nc1ccc(N2CCN(C3CCCCC3)C2=O)nc1

Row | RP-LC retention time [s] | Compound
45 | 770 | Cc1ccc(NC(=O)N2CCC(N3CCN(Cc4ccc(F)cc4)C(=O)C3=O)CC2)cc1F
46 | 702 | CCCCN(C)c1ncc(C(=O)Nc2ccccc2)c(N)n1
47 | 916 | COc1ccc2c(c1)C1CC(C)(O2)N(C)C(=O)C1S(=O)(=O)c1ccccc1 (centres undefined)
48 | 649 | CCNC(=O)C1CCCN(c2nc3ncn(CC(=O)Nc4ccc5c(c4)OCO5)c(=O)c3s2)C1 (centres undefined)
49 | 732 | Cc1cccc(CN2CCCN(c3ncccc3-c3nc(C4CC4)no3)CC2)c1
50 | 671 | O=c1cc(CN(Cc2ccccc2)Cc2ccccc2)nc2ccccn12
51 | 994 | COc1ccc(Cl)cc1S(=O)(=O)N1CCC(C(=O)NCCC2=CCCCC2)CC1
52 | 924 | CCN1C(=O)c2cc(S(=O)(=O)Nc3ccccc3F)ccc2Oc2cccnc21
53 | 1000 | COC(=O)c1ccc(NC(=O)N2CCOc3ccc(Cl)cc32)cc1
54 | 697 | O=C(N[C@H]1C[C@@H]2C[C@H]1CN2S(=O)(=O)c1cccnc1)c1ccccc1
55 | 729 | CCCNC(=O)Cn1c(=O)c2cccn2c2ccc(F)cc21
56 | 936 | COC(=O)c1nnn(-c2cccc(Cl)c2C)c1C(=O)OC
57 | 603 | O=C(NCCN1CCOCC1)C1c2ccccc2CC(=O)N1Cc1ccccc1 (centres undefined)
58 | 656 | Cc1ccn2cc(-c3ccc(NC(=O)c4ccccc4I)cc3)nc2n1
59 | 821 | COc1ccc(C2Cn3cnc(C(=O)N4CCC(C(=O)NCC5CCCCC5)CC4)c3CO2)cc1 (centres undefined)
60 | 938 | Cn1nc(-c2nnc(-c3ccccc3)o2)c2c1CCN(S(=O)(=O)c1ccccc1Cl)C2
61 | 972 | Cc1cccc(C(=O)N2CCc3cc(CNS(=O)(=O)Cc4ccccc4)ccc32)c1
62 | 588 | O=C(Nc1ccc(CC(=O)N2CCC(O)CC2)cc1)C1CCC1
63 | 625 | COc1ccc(Cl)cc1NC(=O)N1CCN(CCn2cnc3cccnc32)CC1
64 | 897 | CCc1ccc(-n2nc(CO)c(C(=O)NC3CC3)n2)cc1
65 | 759 | O=C(NCc1ccccc1F)c1ccc2c(c1)CN(Cc1cccs1)CCO2
66 | 859 | CCc1ccc(NC(=O)C2CCCN2S(=O)(=O)c2ccc3c(c2)NC(=O)CO3)cc1 (centres undefined)

Row | RP-LC retention time [s] | Compound
67 | 856 | CCC(CC)c1nnc(NC(=O)C2CC(=O)N(CCc3c[nH]c4ccc(C)cc34)C2)s1 (centres undefined)
68 | 799 | COCCN1C(=O)[C@H]2CN(Cc3ccc(OC)c(OC)c3OC)C[C@H]2C1=O
69 | 847 | COC(=O)c1cccc(NC(=O)NC2CCN(c3ccc(C)c(C)c3)C2=O)c1 (centres undefined)
70 | 848 | O=C(CCc1ccc2cc[nH]c2c1)NCc1cc(F)cc(F)c1
71 | 1080 | CCCc1cc(=O)n(CC(=O)Nc2ccc(C)cc2Cl)c(-c2ccc(Cl)cc2)n1
72 | 658 | COC(=O)Nc1nc2ccc(S(=O)c3ccccc3)cc2[nH]1 (centres undefined)
73 | 672 | CCOc1ccc(-c2ccc(N3CCN(C(=O)Cc4noc5ccccc45)CC3)nn2)cc1
74 | 795 | Cc1ccc(CNC(=O)CCCN2C(=O)CCn3nc(-c4cccn4C)cc32)cc1
75 | 894 | Cc1cc(C)nc(SCc2ccc(C(=O)NCCc3c[nH]c4ccccc34)o2)n1
76 | 828 | COc1ccc(-c2csc(NC(=O)Cn3c(=O)oc4ccccc43)n2)cc1OC
77 | 719 | CN(CC1CCOC1)C(=O)c1cc(Cl)ccc1F (centres undefined)
78 | 958 | O=C(CN1c2ccc(F)cc2-c2ccccc2S1(=O)=O)N1CCCCCC1
79 | 533 | CNC(=O)N1CCCN(S(C)(=O)=O)CC1
80 | 813 | O=C(OCc1cccnc1)c1cn(-c2cccc(Cl)c2)c(=O)c2ccccc12
81 | 602 | CCC1(O)CCOC2(CCN(Cc3cccc(OC)n3)CC2)C1 (centres undefined)
82 | 1030 | O=C(Cn1cccc1-c1nnc(-c2ccccc2)o1)Nc1ccc(Cl)cc1
83 | 637 | c1cc(N2CCCCC2)ncc1-c1noc(CN2CCC3(CC2)OCCO3)n1
84 | 1040 | CCOC(=O)CSc1nc2c(sc3ccccc32)c(=O)n1Cc1ccco1
85 | 719 | Cc1ccc(NC(=O)Nc2ccc3nnc(C)n3c2)cc1C
86 | 1150 | CCOc1nc2ccccc2nc1N1CCCC(C(=O)N2CCSCC2)C1 (centres undefined)
87 | 633 | O=C(c1cc(-c2cccnc2)n[nH]1)N1CCN(C(=O)c2cc3ccccc3[nH]2)CC1
88 | 909 | Cc1ccc(-c2ncc(C(=O)NCc3ccccc3C)c(-c3ccncc3)n2)cc1

Row | Compound | RP-LC retention time [s]
89 | COC(=O)C[C@@](O)(CCC(C)(C)O)C(=O)O[C@@H]1C(OC)=C[C@]23CCCN2CCc2cc4c(cc2[C@@H]13)OCO4 | 612
